In patent US6784155B1, “Inhibitor and stimulator of stem cell proliferation and uses thereof” (Wellstat Therapeutics Corporation, priority 1996, dated 2004):
No end group written: not given here.

Experiments:
CFU-MIX [1] = experiment: CFU-MIX cycling assay in vitro (Ara C kill); type: cell-based, mouse
Outline: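 Balb/c mice dosed i.v. with peptide 43-55 or vehicle; bone marrow harvested next day, cells (5×10^6/ml) held 3 h at 37° C ± test substance, then 1 h ± Ara C 30 μg/ml. CFU-MIX colonies counted after 7 days in methylcellulose; fraction cycling from colony loss with Ara C versus medium.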

CFU-GEMM [2] = experiment: CFU-GEMM cycling assay, human bone marrow cells; type: cell-based
Description: To assess the bioactivity of recombinant p1-97, the CFU-GEMM cycling assay was used as in Example 18:
CD34^+ stem cells were obtained from Poietic Technologies (Gaithersburg, MD) after purification from human bone marrow by means of a CelUPro column. Cells were incubated for 48 hours with kit ligand and IL-3 and used in a CFU-GEMM cycling assay in Example 26.

CFU-GEMM [3] = experiment: CFU-GEMM cycling assay, human umbilical cord blood cells; type: cell-based
Description: In order to investigate the ability of purified INPROL from porcine bone marrow to affect cycling on human progenitors, umbilical cord blood cells were obtained. Either the total mononuclear cell fraction obtained after separation on Ficoll or the CD34^+ fraction obtained after fractionation on anti-CD34 affinity columns (CellPro Inc.) was used. Cells were incubated for 48 hours in vitro in the presence of interleukin 3 (IL-3) and stem cell factor (SCF) (100 ng/ml each) in order to ensure that the early stem cells were in cycle. After this preincubation, cycling assays were conducted as described in Example 14 for the mouse except that CFU-GEMM (instead of CFU-MIX) were counted on Day 18 after plating.
The human cord blood CFU-GEMM cycling assay was conducted as in Example 19. Specifically, mononuclear cells were isolated from human umbilical cord blood cells and adjusted to 24×10^4 cells/ml in IMDM tissue culture medium supplemented with 10% FBS, 100 ng/ml kit ligand and 100 ng/ml human IL-3. The cells were incubated for 48 hours at 37° C.
After incubation, cells were washed and resuspended in serun-free NDM at a concentration of 10^6 cells/ml. One ml of cells was added to each of two polypropylene tubes per condition and the cycling assay conducted as in Example 24 for mouse bone marrow. After the Ara C incubation cells were washed with cold NDM and adjusted to 10,000 to 20,000 cells per 0.5 ml IMDM and mixed with 5 ml Methocult H4433 (Stem Cell Technologies). Alternatively, Methocult H4435 methylcellulose medium (Stem Cell Technologies) was used in which case the cell concentration was adjusted to 2500-5000 cells per 0.5 ml IMDM. The cells were plated as in Example 24 and CFU-GEMM colonies scored on days 14-18.

CFU-MIX [4] = experiment: CFU-MIX cycling assay after in vivo injection into testosterone or 5FU treated mice; parameters: species or system mouse
Description: In order to test the ability of purified porcine hemoglobin chains to act in vivo, BDF1 mice were injected with testosterone propionate as described in Example 1. Twenty four hours later, mice received 500 ng of either pINPROL, porcine hemoglobin alpha chain (purified from peripheral red blood cells as in FIG. 21), porcine beta chain (purified from peripheral red blood cells as in FIG. 21) or the equivalent volume of carrier intravenously. Forty eight hours later the bone marrow from each mouse was harvested and the CFU-MIX assay conducted as described in Example 14.
To assess the stem cell inhibitory activity of peptide 43-55 in vivo, B6D2 F1 mice were pre-treated with testosterone propionate as described in Example 1 or with 5FU. Specifically, testosterone propionate (100 mg/kg body weight) was injected i.p. on Day 0 into mice. Alternatively, mice were injected on Day 0 with 5FU ([…] body weight).
24 hours later (Day 1), varying doses of peptide 43-55 or vehicle were injected i.v. Bone marrow was harvested on Day 2 and the […] cycling assay conducted as in Example 14. Specifically, mice were sacrificed and single cell bone marrow suspensions prepared from the femurs. The cells were washed once and the concentration adjusted to 5×10^6 cells/ml in Fischer medium. For each test condition, one milliliter of cells was added to each of two polypropylene tubes. The tubes were incubated at 37° C. for 3 hours without (“Control”) or with (“Experimental”) the appropriate concentration of test substance. At the end of the incubation, 30 μg/ml of cytosine arabinoside (“Ara C” (Sigma)) was added to half of the tubes and the same volume of Fischer's medium was added to the others. The tubes were incubated for a further 1 hour at 37° C., after which they were placed on ice and washed twice with cold Fischer medium.
The cells were readjusted to 5×10^4-10^6/ml in Fischer's medium and 0.5 ml of cell suspension added to 5 ml of Methocult M3430 methylcellulose medium (Stem Cell Technologies, Vancouver, British Columbia). The mixture was vigorously mixed with a vortex and 1 ml was dispensed into each of five 35 mm dishes. The 35 mm dishes were in turn placed in a covered 150 mm dish with one open 35 mm dish containing sterile water. CFU-MIX colonies were counted with the use of an inverted microscope after 7 days of incubation at 37° C.
Differences in colony number between the tubes treated with medium versus the tubes treated with Ara C represent the percentage of cells in cycle under that condition according to the formula: […]

CFU-MIX [5] = experiment: Stimulation of cycling of quiescent murine stem cells, CFU-MIX cycling assay in vitro; type: cell-based, mouse
Description: Microgram per milliliter doses of hemoglobin chains, myoglobin and peptides were assayed for stimulation of quiescent stem cells. Bone marrow was obtained from untreated B6D2F1 tested in the CFU-MIX cycling assay as in Example 24. Stem cells isolated from untreated B6D2F1 mice are normally slowly cycling unless stimulated (e.g. by testosterone propionate (cf. Example 1) or chemotherapy such as 5FU (cf. Example 4)) to enter into cycle.

[6] = Table 33, CD34+ stem cells from human bone marrow, concentration printed only as (ng/ml)
[7] = Table 32, cord blood mononuclear cells, 100 ng/ml

In the case of “FPHFDLSHGSAQV [Peptide 43-55, amino acids 43-55 of human alpha hemoglobin]”, the “% Kill” value (CFU-MIX [1]; Table 17, 1 ng/ml) is reported as 11%, the “% Kill” value (CFU-MIX [1]; Table 17, 10 ng/ml) is reported as 18% and the “% Kill” value (CFU-MIX [1]; Table 17, 100 ng/ml) is reported as 2%. For the same substance, the “% Kill” value (CFU-MIX [1]; Table 18, 100 ng/ml) was 5%, the “% Kill” value (CFU-MIX [1]; Table 24, 1 ng/ml) was 8% and the “% Kill” value (CFU-MIX [1]; Table 27, Balb/c bone marrow, 1 ng/ml) was 8%. The “% Kill” value (CFU-MIX [1]; Table 28, 10 ng/ml, alone) was 6%, the “% Kill” value (CFU-MIX [1]; Table 31, 10 ng/ml, alone) was 8% and the “% Kill” value (CFU-GEMM [2]; [6]) was 0%. For the same substance, the “% Kill” value (CFU-GEMM [3]; Table 32, cord blood mononuclear cells, 1 ng/ml) was 20%, the “% Kill” value (CFU-GEMM [3]; Table 32, cord blood mononuclear cells, 10 ng) was 12% and the “% Kill” value (CFU-GEMM [3]; [7]) was 5%. For the same substance, the “% Kill” value (CFU-MIX [4]; Table 22, testosterone-pretreated animals, 0.5 ng i.v. per 20 gram mouse) was 0%, the “% Kill” value (CFU-MIX [4]; Table 23, 5FU-pretreated animals, 0.5 ng i.v. per 20 gram mouse) was 3% and the “% Kill” value (CFU-MIX [5]; Table 40, untreated B6D2F1 bone marrow, 10 μg/ml) was 26%.

In the case of “Human alpha chain: purified, non-recombinant human alpha hemoglobin chain isolated by reversed-phase HPLC”, the “% Kill” value (CFU-MIX [1]; Table 11, bone marrow from Balb/c mice, 100 ng/ml) is reported as −1%, the “% Kill” value (CFU-MIX [1]; Table 13, bone marrow from Balb/c mice, 100 ng/ml) is reported as 19% and the “% Kill” value (CFU-MIX [1]; Table 20, Balb/c bone marrow, 100 ng/ml) is reported as 12%. The “% Kill” value (CFU-MIX [1]; Table 25, Balb/c bone marrow, 100 ng/ml) was 0%, the “% Kill” value (CFU-MIX [1]; Table 28, 100 ng/ml, alone) was 0% and the “% Kill” value (CFU-MIX [1]; Table 30, 100 ng/ml) was 0%. The “% Kill” value (CFU-MIX [1]; Table 31, 100 ng/ml, alone) was 0%, the “% Kill” value (CFU-GEMM [2]; Table 21, human bone marrow mononuclear cells, 100 ng/ml) was 11% and the “% Kill” value (CFU-GEMM [2]; [6]) was 0%. For the same substance, the “% Kill” value (CFU-GEMM [3]; Table 16, cord blood mononuclear cells, 100 ng/ml) was −23%, the “% Kill” value (CFU-GEMM [3]; [7]) was 0% and the “% Kill” value (CFU-MIX [4]; Table 14, testosterone-treated BDF1 mice, 500 ng/mouse) was −22%. For the same substance, the “% Kill” value (CFU-MIX [4]; Table 22, testosterone-pretreated animals, 500 ng i.v. per 20 gram mouse) was 13%, the “% Kill” value (CFU-MIX [4]; Table 23, 5FU-pretreated animals, 500 ng i.v. per 20 gram mouse) was 0% and the “% Kill” value (CFU-MIX [5]; Table 37, untreated B6D2F1 bone marrow, 1 μg/ml) was 0%. The “% Kill” value (CFU-MIX [5]; Table 37, untreated B6D2F1 bone marrow, 10 μg/ml) was 24%, the “% Kill” value (CFU-MIX [5]; Table 37, untreated B6D2F1 bone marrow, 100 μg/ml) was 40% and the “% Kill” value (CFU-MIX [5]; Table 39, untreated B6D2F1 bone marrow, 100 μg/ml) was 41%. For the same substance, the “% Kill” value (CFU-MIX [5]; Table 40, untreated B6D2F1 bone marrow, 100 μg/ml) was 30%.
